Test results as given in ChEMBL document CHEMBL1201862, “PubChem BioAssay data set” (2004).
Active and inactive are the calls of the source.

Assays:
[1] = target: T1, High affinity choline transporter 1 (Homo sapiens, UniProt Q9GZV3); test: CHT inhibitors, dose response, cell-based, 5-point CRC, membrane potential dye (AID 504840); type: functional
T1 sequence (Q9GZV3 whole entry): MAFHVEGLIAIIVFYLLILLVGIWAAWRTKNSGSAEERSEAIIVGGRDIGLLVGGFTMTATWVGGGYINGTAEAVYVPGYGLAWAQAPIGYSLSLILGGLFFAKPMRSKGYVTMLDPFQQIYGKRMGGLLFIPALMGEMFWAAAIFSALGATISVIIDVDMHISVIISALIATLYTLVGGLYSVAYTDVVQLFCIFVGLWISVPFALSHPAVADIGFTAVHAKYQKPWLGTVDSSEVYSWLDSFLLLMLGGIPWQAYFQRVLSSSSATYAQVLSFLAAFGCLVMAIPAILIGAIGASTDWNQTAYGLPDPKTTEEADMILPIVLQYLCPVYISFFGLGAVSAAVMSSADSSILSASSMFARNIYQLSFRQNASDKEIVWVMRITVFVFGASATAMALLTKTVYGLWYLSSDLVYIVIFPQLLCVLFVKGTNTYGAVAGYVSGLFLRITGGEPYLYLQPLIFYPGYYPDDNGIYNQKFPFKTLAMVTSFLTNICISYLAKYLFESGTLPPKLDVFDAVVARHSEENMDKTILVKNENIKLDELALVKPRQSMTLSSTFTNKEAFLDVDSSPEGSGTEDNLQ

[2] = target: T2, Coagulation factor XII (Homo sapiens, UniProt P00748); type: functional;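 note: activated factor XIIa alpha cleaving a fluorogenic AMC peptide substrate; inhibitor potency from loss of enzyme activity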
T2 sequence (P00748 whole entry): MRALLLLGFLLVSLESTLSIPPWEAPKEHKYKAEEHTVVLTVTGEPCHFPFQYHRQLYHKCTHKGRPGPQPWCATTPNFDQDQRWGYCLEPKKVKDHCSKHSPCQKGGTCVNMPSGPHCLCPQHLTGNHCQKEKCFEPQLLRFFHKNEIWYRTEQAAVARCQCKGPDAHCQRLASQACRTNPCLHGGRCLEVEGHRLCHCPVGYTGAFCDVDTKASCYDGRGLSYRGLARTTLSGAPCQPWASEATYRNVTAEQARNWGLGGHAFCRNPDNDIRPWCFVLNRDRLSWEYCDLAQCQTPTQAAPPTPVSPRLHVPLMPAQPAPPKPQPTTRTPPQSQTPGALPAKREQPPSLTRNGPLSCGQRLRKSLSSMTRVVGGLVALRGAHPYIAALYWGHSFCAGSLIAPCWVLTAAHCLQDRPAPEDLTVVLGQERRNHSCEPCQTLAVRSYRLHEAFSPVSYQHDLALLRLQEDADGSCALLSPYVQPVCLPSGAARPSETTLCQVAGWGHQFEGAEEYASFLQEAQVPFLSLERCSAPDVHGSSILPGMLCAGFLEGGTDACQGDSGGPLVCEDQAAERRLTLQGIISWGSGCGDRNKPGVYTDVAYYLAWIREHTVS

[3] = target: T3, Alkaline phosphatase, tissue-nonspecific isozyme (Homo sapiens, UniProt P05186); test: human TNAP enzyme inhibitors, SAR follow-up, biochemical, luminescent, dose response (AID 1056)
T3 sequence (P05186 whole entry): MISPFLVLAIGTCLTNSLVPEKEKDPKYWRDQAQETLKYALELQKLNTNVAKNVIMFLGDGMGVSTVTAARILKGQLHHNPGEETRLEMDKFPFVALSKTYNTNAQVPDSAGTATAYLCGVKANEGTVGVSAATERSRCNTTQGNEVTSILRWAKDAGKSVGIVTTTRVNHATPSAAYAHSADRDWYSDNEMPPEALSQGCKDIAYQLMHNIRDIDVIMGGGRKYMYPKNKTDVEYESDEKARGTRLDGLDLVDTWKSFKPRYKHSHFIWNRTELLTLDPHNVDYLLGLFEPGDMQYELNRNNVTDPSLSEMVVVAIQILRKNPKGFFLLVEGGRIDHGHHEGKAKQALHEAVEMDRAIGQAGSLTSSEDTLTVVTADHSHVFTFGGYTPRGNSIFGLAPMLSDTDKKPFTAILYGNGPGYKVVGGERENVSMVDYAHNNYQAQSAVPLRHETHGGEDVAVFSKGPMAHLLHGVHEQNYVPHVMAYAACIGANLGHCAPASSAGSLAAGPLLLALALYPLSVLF

[4] = target: Glyceraldehyde-3-phosphate dehydrogenase (Homo sapiens, UniProt P04406)
Sequence of Glyceraldehyde-3-phosphate dehydrogenase (P04406 whole entry): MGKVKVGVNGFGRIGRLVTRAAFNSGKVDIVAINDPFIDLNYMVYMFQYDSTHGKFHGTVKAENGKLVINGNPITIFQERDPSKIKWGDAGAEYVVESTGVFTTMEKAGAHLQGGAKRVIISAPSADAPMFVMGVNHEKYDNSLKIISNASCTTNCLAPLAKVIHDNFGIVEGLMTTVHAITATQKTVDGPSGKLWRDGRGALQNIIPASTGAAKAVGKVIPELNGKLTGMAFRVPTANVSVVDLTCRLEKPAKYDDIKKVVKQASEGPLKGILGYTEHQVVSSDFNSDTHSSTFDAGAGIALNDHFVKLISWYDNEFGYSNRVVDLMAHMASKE

[5] = growth suppression of PTEN-null colon cells, dose response, cell-based, HCT116 PTEN knockout (AID 1047); type: functional;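 note: HCT116 colon tumor cells with PTEN knocked out; cells exposed to compound for 60 hours before readout; potency for loss of cell viability measured by luminescence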
[6] = growth suppression of beta-catenin-knockout colon cells, dose response, cell-based, HCT116, human colon tumor (AID 1045); type: functional;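 note: HCT116 colon tumor cells with beta catenin knocked out; cells exposed to compound for 60 hours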
[7] = THP-1 cell cytotoxicity, dose response, cytotoxicity control for Vif-APOBEC3G degradation inhibitor project, THP-1 cells (AID 1117359); type: functional; details: Human immunodeficiency virus 1, THP-1
[8] = test system: HEK293; test: NOD2 signaling inhibitors in MDP-stimulated cells, cell-based, uHTS, luminescence (AID 2001); type: functional; details: Homo sapiens
[9] = test system: Streptococcus sp. 'group A'; test: growth inhibition of control SK(-) GAS strain, dose response, counter-screen for streptokinase expression inhibitor project, luminescence, kanamycin, BacTiterGlo, confirmation (AID 1900); type: functional, organism-based
[10] = test system: HEK293; test: cells; type: functional, cell-based; details: Homo sapiens
[11] = test system: Streptococcus; test: Group A Streptococcus viability loss, dose response, counter-screen for streptokinase expression inhibitor project, luminescence, BacTiterGlo (AID 1915); type: functional, organism-based;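 note: potency for reduction of bacterial viability or growth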
[12] = test system: HEK293; test: cells; type: functional, cell-based; details: Homo sapiens; remark: listed apart in the source
[13] = target: T4, Short transient receptor potential channel 4 (Mus musculus, UniProt Q9QUQ5); test: mouse TRPC4 channel activators, dose response, cell-based, HEK293 TRPC4/mu-opioid, Fluo-4 calcium (AID 434937); type: functional
T4 sequence (Q9QUQ5 whole entry): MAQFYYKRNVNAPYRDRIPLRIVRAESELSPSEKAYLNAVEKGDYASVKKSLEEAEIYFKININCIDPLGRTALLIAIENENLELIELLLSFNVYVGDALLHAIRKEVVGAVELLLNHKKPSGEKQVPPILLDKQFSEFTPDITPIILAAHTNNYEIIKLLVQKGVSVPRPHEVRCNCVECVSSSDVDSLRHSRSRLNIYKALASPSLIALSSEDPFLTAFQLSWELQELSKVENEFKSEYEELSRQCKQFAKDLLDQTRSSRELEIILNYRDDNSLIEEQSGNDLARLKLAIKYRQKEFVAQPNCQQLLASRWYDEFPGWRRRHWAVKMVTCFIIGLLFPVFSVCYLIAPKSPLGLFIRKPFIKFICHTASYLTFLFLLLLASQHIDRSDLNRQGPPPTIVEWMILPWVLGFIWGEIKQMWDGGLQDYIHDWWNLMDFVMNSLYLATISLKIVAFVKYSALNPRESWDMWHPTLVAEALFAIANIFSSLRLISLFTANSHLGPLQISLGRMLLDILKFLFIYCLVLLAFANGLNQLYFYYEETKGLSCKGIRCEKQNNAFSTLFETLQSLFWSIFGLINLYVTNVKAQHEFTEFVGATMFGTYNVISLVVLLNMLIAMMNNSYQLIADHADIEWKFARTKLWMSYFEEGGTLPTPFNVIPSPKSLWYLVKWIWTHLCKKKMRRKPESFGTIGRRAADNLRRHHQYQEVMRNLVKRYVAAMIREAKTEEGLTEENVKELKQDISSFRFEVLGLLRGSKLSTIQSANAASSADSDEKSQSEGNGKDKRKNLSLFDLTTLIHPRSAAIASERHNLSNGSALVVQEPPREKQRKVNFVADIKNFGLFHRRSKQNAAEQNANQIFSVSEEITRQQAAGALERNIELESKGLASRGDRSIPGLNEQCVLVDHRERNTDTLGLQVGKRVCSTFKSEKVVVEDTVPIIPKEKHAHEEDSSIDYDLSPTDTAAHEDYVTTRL

[14] = test system: HEK293; test: NOD1 signaling inhibitors, primary screen, cell-based, luminescence, uHTS (AID 1578); type: functional; details: Homo sapiens
[15] = P. falciparum 3D7-ScDHODH growth inhibitors, dose response, SYBR Green, dry powder samples (AID 1159570); type: functional, cell-based;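 note: parasite growth measured after 72 hours of compound exposure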
[16] = P. falciparum Dd2 growth inhibitors, dose response, SYBR Green, cherry-picked samples (AID 1159567); type: functional, cell-based
[17] = P. falciparum Dd2 growth inhibitors, dose response, SYBR Green, dry powder samples (AID 1159566); type: functional, cell-based;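 note: potency for growth inhibition with lower SYBR green DNA signal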
[18] = P. falciparum ATP4 D1247Y mutant growth inhibitors, dose response, NITD609-resistant line, SYBR Green, dry powder (AID 1159571); type: functional, cell-based;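 note: parasites synchronized at ring stage by sorbitol before testing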

CCN(CC)CCC(c1ccc2c(c1)OCO2)c1c(OC)cc(OC)c2c(-c3ccccc3)cc(=O)oc12 (stereo not drawn)
IC50 [1]: 18.2 µM (active)

COc1ccc(-c2csc3ncnc(N4CCN(CCO)CC4)c23)cc1
IC50 [1]: 13.8 µM (active)

Cc1ccc(S(=O)(=O)N2CCN(Cc3cc(C(C)C)ccc3O)CC2)cc1
IC50 [2]: > 50 µM (inactive)

CC(NC(=O)c1cccc(S(=O)(=O)N2CCN(C)CC2)c1)C1CC2CCC1C2 (stereo not drawn)
IC50 [1]: 13.2 µM (active)

O=C(NCCN1CCc2ccccc2C1)C1CC(=O)N(C2CCCC2)C1 (stereo not drawn)
IC50 [2]: > 50 µM (inactive)

COc1ccc(Br)cc1S(=O)(=O)Nc1ccon1
IC50 [3]: > 100 µM (inactive) | IC50 [4]: > 100 µM (not active)

Cc1nnc(NC(=O)c2c(F)c(F)c(F)c(F)c2F)s1
IC50 [2]: > 50 µM (inactive)

CC1CCCCC1N=C(S)Nc1ccc(SC(F)F)cc1 (stereo not drawn)
IC50 [1]: 7.63 µM (active) | EC50 [5]: 17.5 µM (active) | EC50 [6]: 19 µM (active)

COc1ccc(OCCOC(=O)c2cc(S(=O)(=O)N3CCOCC3)c(Cl)cc2Cl)cc1
CC50 [7]: 23.9 µM (active)

O=c1c2cc(Br)ccc2nc(-c2ccc(Cl)cc2)n1O
IC50 [1]: 5.01 µM (active) | IC50 [8]: 14.2 µM (inactive) | EC50 [9]: 1.24 µM (active) | IC50 [10]: > 20 µM (inactive) | EC50 [11]: 2.6 µM (active) | IC50 [12]: > 20 µM (inactive) | EC50 [13]: 6.68 µM (active) | EC50 [14]: 6.02 µM (active)

NNC(=O)CN1C(=O)CN=C(c2ccccc2)c2cc(Br)ccc21
IC50 [2]: > 50 µM (inactive)

CCOC(=O)Nc1cc(C)c(Cl)cc1OC
CC50 [7]: > 40 µM (active)

COC(=O)c1ccc(OC)c(S(=O)(=O)Nc2cnc3ccccc3c2)c1
IC50 [3]: > 10 µM (inactive) | IC50 [4]: > 10 µM (inconclusive)

CN(C)/C=C1\C=C(c2ccccc2)OC1=O
IC50 [2]: > 50 µM (inactive)

C[C@@H]1CN([C@@H](C)CO)C(=O)c2cccc(NC(=O)Nc3ccccc3)c2O[C@@H]1CN(C)C(=O)Nc1ccccc1
AC50 [15]: 1.06 µM (active) | AC50 [16]: 0.37 µM (active) | AC50 [17]: 0.204 µM (active) | AC50 [18]: 0.216 µM (active)

COc1ccc(NC(=O)N(C)C[C@H]2Oc3c(NC(=O)Nc4ccccc4)cccc3C(=O)N([C@@H](C)CO)C[C@H]2C)cc1
AC50 [15]: 0.261 µM (active) | AC50 [16]: < 0.3 µM (active) | AC50 [17]: 0.167 µM (active) | AC50 [18]: 0.2 µM (active)
